Paper PMC4950319, “Kinetic and structural characterization of amyloid‐β peptide hydrolysis by human angiotensin‐1‐converting enzyme” (The Febs Journal, 2016)

System: CC‐sACE
Test: Aβ(4–10)Y hydrolysis by CC‐sACE, fluorogenic assay
Assay type: biochemical, human
Settings: fluorescence λex 320 nm, λem 420 nm, Hepes pH 7.5 buffer as for Aβ(4–10)Q, 5 min time point, enzyme 0.071 pmol, n = 3
Excerpt: Fluorogenic substrates designed around the established N‐terminal Asp7‐Ser8 cleavage site of the full‐length Aβ(1–42) were used to develop a higher throughput assay. There are two variations of the short fluorogenic peptides: Aβ(4–10)Q (Abz‐FRHDSG(Q)‐EDDnp) which has an N‐terminal Abz donor and a C‐terminal EDDnp quencher group attached to an additional Gln residue. The second peptide, Aβ(4–10)Y (Abz‐FRHDSG‐(NT)) has a different quencher molecule, NT, which substitutes for the naturally occurring Tyr residue.
An alternative fluorogenic peptide, Abz‐FRHDSG‐(NT) (BIOPEP™ South Africa) was assayed, with 100 μL enzyme and 100 μL substrate (at a final enzyme concentration within 10% hydrolysis of total substrate; see Table 3) as above, in 96‐well plates. The samples were read at the 5 min time point on a Cary Eclipse spectrofluorimeter (Varian Inc.) at λex = 320 nm and λem = 420 nm. Kinetic constants, inner filter effect and standard curves were calculated as above.
Statistical analysis of the data was determined by Student's t test. Differences with P < 0.05 were considered statistically significant. Fractional error was calculated for the k cat/K m ratio with the following equation: ΔZ=ZΔa/a^2+Δb/b^2 where Z represents the mean k cat/K m and ΔZ represents the fractional error. The Δa represents the SEM of the mean k cat (a). Similarly, Δb represents the SEM of the mean K m (b).

Chain of CC‐sACE (P12821 643-1222 limits assumed): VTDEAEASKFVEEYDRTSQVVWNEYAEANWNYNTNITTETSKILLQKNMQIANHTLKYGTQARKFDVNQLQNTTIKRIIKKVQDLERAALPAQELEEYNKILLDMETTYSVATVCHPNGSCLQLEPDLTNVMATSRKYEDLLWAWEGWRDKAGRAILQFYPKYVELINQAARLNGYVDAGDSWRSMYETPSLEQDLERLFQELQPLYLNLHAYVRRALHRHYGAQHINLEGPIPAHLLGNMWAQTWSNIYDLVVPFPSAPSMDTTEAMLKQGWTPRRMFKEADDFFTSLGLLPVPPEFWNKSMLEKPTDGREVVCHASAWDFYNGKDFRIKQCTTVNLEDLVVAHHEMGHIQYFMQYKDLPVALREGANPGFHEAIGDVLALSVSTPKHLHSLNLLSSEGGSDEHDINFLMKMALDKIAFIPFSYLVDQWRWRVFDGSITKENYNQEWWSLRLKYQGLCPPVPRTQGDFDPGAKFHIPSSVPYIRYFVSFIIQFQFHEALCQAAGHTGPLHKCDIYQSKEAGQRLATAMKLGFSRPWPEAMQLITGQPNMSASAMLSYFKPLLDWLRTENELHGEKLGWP

## Abz‐FRHDSG‐(NT) [Aβ(4–10)Y, fluorogenic Aβ(4–10) peptide with NT quencher substituting for Tyr]
Mean ± SEM
  K m: 20.30 ± 2.55 µM
  V max: 0.90 ± 0.08
  k cat: 12.70 ± 1.16 s⁻¹
Mean ± fractional error of the ratio
  k cat/K m: 6.33 ± 0.98 M^−1·s^−1 × 10^5
